Values after ≈ are worked out from the molar mass of the structure shown.
Assays:
[1] = tested on: Enterococcus faecium ATCC 700221 VRE (Vancomycin resistant E. faecium); experiment: In-vitro antibacterial activity, broth microdilution MIC; assay type: cell-based; settings: Table 9, read-out: Antimicrobial activity (in vitro MIC) ATCC 700221
Protocol: (§1) The in-vitro antibacterial activity of the compounds of the present invention (as described in Table 7) was determined by a broth microdilution following the guidelines prescribed by the Clinical and Laboratory Standards Institute (CLSI). This method is described in the CLSI Document M7-A7, Vol. 26, No. 2, “Methods for Dilution Antimicrobial Susceptibility Test for Bacteria that Grow Aerobically; Approved Standard-Seventh Edition”, which is incorporated herein by reference. Minimum Inhibitory Concentration (MIC) is defined as the minimum concentration of test compound which inhibits the growth of bacteria as visible or seen by the naked eye. This test can also be carried out by agar dilution method.
(§2) The compounds of the present invention were tested against a panel of standard microorganisms obtained from ATCC (American type culture collection). Linezolid was used as comparator in all the tests.
(§3) In the broth microdilution method, the compound was dissolved in dimethylsulfoxide and two fold serial dilutions were carried out in 96 well microtitre plates. The inoculum was prepared by adjusting the turbidity of actively growing broth culture and added to the wells to obtain a final bacterial count of ˜2-5×10^4 CFU/well. The microtitre plates were incubated at 35±2° C. for 16-20 h and then read visually.

[2] = tested on: Staphylococcus aureus ATCC 29213 MSSA (Methicillin sensitive); experiment: as above; assay type: cell-based; settings: Table 9, S. aureus MSSA, read-out: Antimicrobial activity (in vitro MIC) ATCC 29213
Protocol: as §1, §2, §3

[3] = tested on: Staphylococcus aureus ATCC 33591 MRSA (Methicillin resistant); experiment: as above; assay type: cell-based; settings: Table 9, S. aureus MRSA, read-out: Antimicrobial activity (in vitro MIC) ATCC 33591
Protocol: as §1, §2, §3

[4] = tested on: Enterococcus faecalis ATCC 29212 Vancomycin Sensitive; experiment: as above; assay type: cell-based; settings: ATCC29212, Table 9, E. faecalis, read-out: Antimicrobial activity (in vitro MIC) ATCC 29212
Protocol: as §1, §2, §3

[5] = tested on: male SWISS albino mice; experiment: Forced Swim Test; assay type: in vivo; settings: mice; for CNS Activity (in vivo FST) % decrease in immobility time (dose 32 mg/kg) / CNS Activity (in vivo FST) % decrease in immobility time: Table 9; for CNS Activity (in vivo FST) % decrease in immobility time: footnote *: dose 64 mg/kg/p.o; for % decrease in immobility time (dose 64 mg/kg): Table 8, oral, suspended in deionized water, 15 min before test
Protocol: This test was conducted according to the method of Porsolt et al. (Porsolt, R. D., et al., Behavioural despair in mice: A primary screening test for antidepressants. Arch. in Pharmacodyn. Ther., 229, pp 327-336 (1977)).
A test compound was suspended in deionized water, unless otherwise specified, and this suspension was orally administered to male SWISS albino mice (7 to 9 week old). 15 min later, the mice were placed in a water tank having a water depth of 15 cm and a water temperature of 25±1° C. and immediately thereafter allowed to swim for 6 min. Then, a time during which the mouse was immobile (immobility time) was measured for the last 4 min.

| SMILES | MIC [1] [µg/mL] | MIC [2] [µg/mL] | MIC [3] [µg/mL] | MIC [4] [µg/mL] | CNS Activity (in vivo FST) % decrease in immobility time (dose 32 mg/kg) [5] [%] | CNS Activity (in vivo FST) % decrease in immobility time [5] | % decrease in immobility time (dose 64 mg/kg) [5] [%] |
| --- | --- | --- | --- | --- | --- | --- | --- |
| CC(=O)N1CC2CC2(c2ccc(N3C[C@H](CO)OC3=O)cc2)C1 (some centres unmarked) [drawing 534] | 4 (≈ 12.6 µM) | 4 (≈ 12.6 µM) | 2 (≈ 6.32 µM) | 4 (≈ 12.6 µM) | 5.1 ± 1.4 | – | – |
| CCN1CC2CC2(c2ccc(N3CCCC3)cc2)C1 (centres unmarked) [drawing 535] | > 32 | > 32 | > 32 | > 32 | 99.9 ± 0.1 | – | – |
| CCN1CC2CC2(c2ccc(N3CCOCC3)cc2)C1 (centres unmarked) | > 32 | > 32 | > 32 | > 32 | – | 81.0 ± 7.1* % | – |
| CCN1CC2C(COC)C2(c2ccc(N3CCCC3)cc2)C1 (centres unmarked) [drawing 538] | > 32 | > 32 | > 32 | > 32 | 97.2 ± 1.2 | – | – |
| CCN1CC2CC2(c2ccc(N3CCOC3=O)cc2)C1.Cl (centres unmarked) | > 32 | > 32 | > 32 | > 32 | 99.2 ± 0.8 | – | – |
| CCN1CC2CC2(c2cc3cc(N4CCOCC4)ccc3s2)C1 (centres unmarked) | – | – | – | – | – | – | 38.4 ± 2.7 |
| CCN1CC2CC2(c2ccc(N3CCOCC3=O)cc2)C1.Cl (centres unmarked) | – | – | – | – | – | – | 88.7 ± 5.2 |
| c1cc(C23CNCC2C3)ccc1N1CCOCC1 (centres unmarked) [drawing 537] | > 32 | > 32 | > 32 | > 32 | – | 84.8* % | – |
